Active and inactive are the calls of the source. The rule behind the calls is not given here.
Legend:
[1] = test system: Rattus norvegicus; experiment: Positive allosteric modulation of AMPA receptor in anesthetized Long-Evans rat assessed as amplitude increase by measuring evoked hilar excitatory post-synaptic field potentials at 1 mg/kg, ip for every 20 secs up to 80 to 100 mins by electrophysiology assay; assay type: functional; conditions: route intraperitoneal
[2] = organism: Rattus norvegicus; experiment: Positive allosteric modulation of AMPA receptor in Sprague-Dawley rat hippocampal neuron assessed as glutamate-induced response pre-treated for 20 secs by patch-clamp electrophysiology; assay type: tissue-based; conditions: Hippocampus
[3] = test system: Rattus norvegicus; experiment: Positive allosteric modulation of AMPA receptor in anesthetized Long-Evans rat assessed as amplitude increase by measuring evoked hilar excitatory post-synaptic field potentials at 5 mg/kg, ip for every 20 secs up to 80 to 100 mins by electrophysiology assay; assay type: functional
[4] = test system: Rattus norvegicus; experiment: Positive allosteric modulation of AMPA receptor in anesthetized Long-Evans rat assessed as amplitude increase by measuring evoked hilar excitatory post-synaptic field potentials at 3 mg/kg, ip for every 20 secs up to 80 to 100 mins by electrophysiology assay; assay type: functional; conditions: route intraperitoneal
[5] = test system: Rattus norvegicus; experiment: Positive allosteric modulation of AMPA receptor in anesthetized Long-Evans rat assessed as amplitude increase by measuring evoked hilar excitatory post-synaptic field potentials at 0.5 mg/kg, iv for every 20 secs up to 80 to 100 mins by electrophysiology assay; assay type: functional
[6] = test system: Rattus norvegicus; experiment: Positive allosteric modulation of AMPA receptor in anesthetized Long-Evans rat assessed as amplitude increase by measuring evoked hilar excitatory post-synaptic field potentials at 10 mg/kg, ip for every 20 secs up to 80 to 100 mins by electrophysiology assay; assay type: functional; conditions: route intraperitoneal
[7] = test system: Rattus norvegicus; experiment: Positive allosteric modulation of AMPA receptor in anesthetized Long-Evans rat assessed as amplitude increase by measuring evoked hilar excitatory post-synaptic field potentials at 1 mg/kg, iv for every 20 secs up to 80 to 100 mins by electrophysiology assay; assay type: functional
[8] = test system: Rattus norvegicus; experiment: Memory enhancing effect in Long-Evans rat assessed as increase in tetanic stimulation of hippocampal long term potentiation at 1 mg/kg, ip; assay type: functional, organism-based; design: dose 1 mg/kg; conditions: Hippocampus
[9] = test system: Rattus norvegicus; experiment: Positive allosteric modulation of AMPA receptor in anesthetized Long-Evans rat assessed as amplitude increase by measuring evoked hilar excitatory post-synaptic field potentials at 2 mg/kg, ip for every 20 secs up to 80 to 100 mins; assay type: functional; conditions: route intraperitoneal

SMILES | CD [2] | Activity ([3]; route intraperitoneal) | also measured
C[C@H](Cn1cc(Cl)cn1)n1cnc2cc3c(cc2c1=O)OC1CCCN1C3=O (stereo partly specified) | 0.0069 µM |  | Activity [1]: 2%
O=C1c2cc3nnn(CCn4cccn4)c(=O)c3cc2OC2CCCN12 (stereo unspecified) | 0.1 µM |  | Activity [3]: inactive
C[C@H](Cn1ncnn1)n1cnc2cc3c(cc2c1=O)OC1CCCN1C3=O (stereo partly specified) | 0.03 µM | 22% | 
O=C(CN1COc2cc3c(cc2C1=O)OC1CCCN1C3=O)c1ccccc1 (stereo unspecified) | 100 µM |  | 
Cn1nnc2cc3c(cc2c1=O)OC1CCCN1C3=O (stereo unspecified) | 0.68 µM |  | Activity [3]: inactive
C[C@H](Cn1ncnn1)n1nnc2cc3c(cc2c1=O)OC1CCCN1C3=O (stereo partly specified) | 0.042 µM | 39% | 
C#C[C@H](Cc1cc(F)cc(F)c1)n1cnc2cc3c(cc2c1=O)OC1CCCN1C3=O (stereo partly specified) | 0.002 µM |  | Activity [1]: 30%
C#CCn1cnc2cc3c(cc2c1=O)OC1CCCN1C3=O (stereo unspecified) | 0.13 µM |  | Activity [3]: inactive
O=C1c2cc3ncn(CCc4cccc(F)c4)c(=O)c3cc2OC2CCCN12 (stereo unspecified) | 0.0037 µM |  | Activity [4]: 27%; Activity [5]: 21%
O=C1c2cc3c(cc2OCN1CC(F)(F)c1cccc(F)c1)C(=O)N1CCCC1O3 (stereo unspecified) | 1.5 µM |  | 
C#C[C@H](Cc1cc(F)cc(F)c1)n1nnc2cc3c(cc2c1=O)OC1CCCN1C3=O (stereo partly specified) | 0.0029 µM | 34% | 
O=C1c2cc3ncn(CCn4cccn4)c(=O)c3cc2OC2CCCN12 (stereo unspecified) | 0.17 µM |  | Activity [3]: inactive
C[C@@H](Cn1cc(Cl)cn1)n1cnc2cc3c(cc2c1=O)OC1CCCN1C3=O (stereo partly specified) | inactive |  | 
O=C1c2cc3nnn(C4CC4)c(=O)c3cc2OC2CCCN12 (stereo unspecified) | 0.4 µM |  | Activity [6]: 3%
CC[C@H](Cn1cc(Cl)cn1)n1cnc2cc3c(cc2c1=O)OC1CCCN1C3=O (stereo partly specified) | 0.0084 µM |  | Activity [4]: 4%
O=C1c2cc3c(cc2OCN1CC(O)c1ccccc1)C(=O)N1CCCC1O3 (racemic) | 1 µM |  | 
O=C1c2cc3ncn(CCn4cc(Cl)cn4)c(=O)c3cc2OC2CCCN12 (stereo unspecified) | 0.019 µM |  | Activity [4]: 3%
COC(=O)[C@@H](Cc1ccccc1)N1COc2cc3c(cc2C1=O)OC1CCCN1C3=O (stereo partly specified) | 48 µM |  | 
O=C1c2cc3c(cc2OCN1CCc1ccccc1)C(=O)N1CCCC1O3 (stereo unspecified) | 0.25 µM |  | 

SMILES | CD [2] | Activity ([3]; route intraperitoneal) | also measured
O=C1c2cc3nnn(CCc4cccc(F)c4)c(=O)c3cc2OC2CCCN12 (stereo unspecified) | 0.0031 µM | 24% | Activity [7]: 24%
C[C@H](Cn1cnnn1)n1nnc2cc3c(cc2c1=O)OCN(C1CC1)C3=O | 0.19 µM | 7% | 
C#CCn1nnc2cc3c(cc2c1=O)OC1CCCN1C3=O (stereo unspecified) | 0.14 µM |  | Activity [3]: inactive
C[C@H](Cn1nccn1)n1cnc2cc3c(cc2c1=O)OC1CCCN1C3=O (stereo partly specified) | 0.45 µM | 7% | 
C#C[C@H](Cc1ccccc1)N1COc2cc3c(cc2C1=O)OC1CCCN1C3=O (stereo partly specified) | 0.32 µM |  | 
C[C@H](Cn1ncnn1)n1nnc2cc3c(cc2c1=O)OCN(C1CC1)C3=O | 0.46 µM | 33% | Activity [8]: Active
C#C[C@H](Cc1cccc(F)c1)N1COc2cc3c(cc2C1=O)OC1CCCN1C3=O (stereo partly specified) | 0.004 µM |  | 
C#C[C@H](Cc1cccc(F)c1)n1nnc2cc3c(cc2c1=O)OC1CCCN1C3=O (stereo partly specified) | 0.004 µM |  | Activity [9]: 5%
O=C1c2cc3ncn(C4CC4)c(=O)c3cc2OC2CCCN12 (stereo unspecified) | 6.7 µM |  | 
C#C[C@H](Cc1cccc(F)c1)n1nnc2cc3c(cc2c1=O)OCN(C1CC1)C3=O | 0.2 µM | 10% | 
C[C@H](Cn1cnnn1)n1nnc2cc3c(cc2c1=O)OC1CCCN1C3=O (stereo partly specified) | 0.015 µM | 10% | 
CC[C@H](Cc1cccc(F)c1)n1nnc2cc3c(cc2c1=O)OC1CCCN1C3=O (stereo partly specified) | 0.021 µM | 2% | 
CC(C)(CN1COc2cc3c(cc2C1=O)OC1CCCN1C3=O)c1cccc(F)c1 (stereo unspecified) | 17 µM |  | 
C#C[C@H](Cc1cccc(F)c1)n1cnc2cc3c(cc2c1=O)OC1CCCN1C3=O (stereo partly specified) | 0.006 µM |  | Activity [9]: 12%
COC(CN1COc2cc3c(cc2C1=O)OC1CCCN1C3=O)c1ccccc1 (racemic) | 7.4 µM |  | 
O=C1c2cc3c(cc2OCN1CCc1cccc(F)c1)C(=O)N1CCCC1O3 (stereo unspecified) | 0.011 µM | 2% | Activity [7]: 28%
COC(=O)[C@H](Cc1ccccc1)N1COc2cc3c(cc2C1=O)OC1CCCN1C3=O (stereo partly specified) | 0.28 µM |  | 
O=C1c2cc3ncn(CCc4ccccc4)c(=O)c3cc2OC2CCCN12 (stereo unspecified) | 0.13 µM | 2% | 

— ChEMBL document CHEMBL1833962, “Benzotriazinone and benzopyrimidinone derivatives as potent positive allosteric AMPA receptor modulators” (2011)
